Test results as given in paper PMC11554305, “Functional identification of soluble uric acid as an endogenous inhibitor of CD38” (eLife, 2024).

Experiments:
CD38 [1] = molecular target: T1, CD38 (Mus musculus, UniProt P56528); assay: Hydrolase and cyclase activities of human and murine CD38; assay type: biochemical; conditions: lung tissues from WT mice, OA 0–5 mM
T1 construct: host or cells: recombinant hCD38, cells and mouse tissues
T1 sequence (P56528 1-304): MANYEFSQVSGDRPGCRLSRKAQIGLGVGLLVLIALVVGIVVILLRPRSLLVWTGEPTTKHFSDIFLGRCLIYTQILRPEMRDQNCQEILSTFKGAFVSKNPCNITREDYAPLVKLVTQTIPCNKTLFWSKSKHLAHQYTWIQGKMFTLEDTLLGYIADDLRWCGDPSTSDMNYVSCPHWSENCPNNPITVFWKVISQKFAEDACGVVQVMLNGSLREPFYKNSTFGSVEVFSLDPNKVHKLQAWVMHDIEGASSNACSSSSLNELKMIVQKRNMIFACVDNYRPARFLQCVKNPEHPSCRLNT
Procedure: (§1) The hydrolase activity of CD38 was measured according to a previous report ([de Oliveira et al., 2018]) with minor modifications. CD38 hydrolase activity was measured using 50 μM ε-NAD^+ as a substrate in hydrolase reaction buffer (250 mM sucrose, 40 mM Tris-HCl, pH 7.4). Briefly, cells or tissues were directly homogenized in blank reaction buffer on ice, and recombinant hCD38 was diluted in blank reaction buffer for subsequent assays. The tissue homogenates were centrifuged to collect the supernatant for enzyme assays. The loading volume of enzyme was 4–30 μL, the total volume of the reaction system was 3 mL. To detect enzyme inhibition, except when specified, the ligands were directly dissolved in hydrolase reaction buffer before pH adjustment, after which, the pH was immediately adjusted to 7.4. All reaction buffers, with or without ligands, were freshly prepared before each assay. For measurement of hydrolase activity, 3 mL reaction buffer containing enzyme, ε-NAD^+, and ligands at indicated concentrations was maintained at 37°C with constant stirring.
(§2) The cyclase activity of CD38 was measured as previously described ([Higashida et al., 1999]; [Jin et al., 2007]). CD38 cyclase activity was measured using 60 μM NGD as a substrate in cyclase reaction buffer (100 mM KCl, 10 μM CaCl2, and 50 mM Tris-HCl, pH 6.6). Tissues were cut into pieces and suspended in the buffer (5 mM MgCl2, 10 mM Tris-HCl, pH 7.3) at 4°C for 30 min. Then, the suspension was homogenized on ice, and the supernatant was collected after centrifugation. To collect the crude membrane fractions, the supernatant was centrifuged at 105,000×g for 30 min. The final pellet was resuspended in 10 mM Tris-HCl solution (pH 6.6) for cyclase assay. Homogenates of THP-1 or A549 cells, and recombinant hCD38 were used directly for cyclase assays. The loading volume of enzyme was 4–20 μL, the total volume of reaction system was 3 mL. To detect enzyme inhibition, except when specified, the ligands were directly dissolved in cyclase reaction buffer before pH adjustment, after which, the pH was immediately adjusted to 6.6. All reaction buffers, with or without ligands, were freshly prepared before each assay. For measurement of cyclase activity, 3 mL reaction buffer containing enzyme, NGD, and ligands at indicated concentrations was maintained at 37°C with constant stirring.
(§3) The reaction buffer for hydrolase or cyclase assays was excited at 300 nm, and fluorescence emission was measured every second at 410 nm by Shimazu RF-6000 spectrofluorometer. Hydrolase or cyclase activity was calculated from the linear portion of the time course by fitting a linear function to the data points recorded within 5 min.
(§4) Guanosine was dissolved in DMSO and diluted in the reaction buffer for subsequent assays.
(§5) For reversibility test, recombinant hCD38 was pre-incubated for 30 min in four conditions: (1) control reaction buffer; (2) in the presence of 100 μM substrate (ε-NAD^+ or NGD); (3) 500 μM sUA; (4) both substrate and sUA. Subsequently, the enzyme was diluted 100-fold in reaction buffer in the presence or absence of 500 μM sUA for activity assays using ε-NAD^+ or NGD. Naïve THP-1 and A549 cells were incubated with RPMI-1640 medium in the presence or absence of 500 μM sUA for 2 hr. The cells were collected and homogenized in the reaction buffer on ice with or without 500 μM sUA, samples were then diluted 100-fold in reaction buffer with or without 500 μM sUA for enzyme assay. Control group was not treated with sUA in all steps; sUA group was treated with sUA in each step; sUA release group was treated with sUA prior to dilution in sUA-free buffer for enzyme assays.

[2] = molecular target: T2, nicotinamide phosphoribosyltransferase (NAMPT) (Homo sapiens, UniProt P43490); assay: NAMPT activity (colorimetric kit); assay type: biochemical; conditions: Figure 3—figure supplement 2A
T2 construct: purchased MBL CY-1251V2
Procedure: The activities of NAMPT and PARP were measured using commercial kits, HT Universal Colorimetric PARP Assay Kit, and CycLex NAMPT Colorimetric Assay Kit Ver.2. The solutions of ligands were freshly prepared (pH was adjusted to 7.4) and were immediately used for enzyme assays.

neutrophils = system: neutrophils; set-up: method as in Ma et al., 2022; conditions: sUA 595 μM; ref Ma et al., 2022; cited from earlier work
CD38 [3] = molecular target: T3, CD38 (Homo sapiens, UniProt P28907); assay: Hydrolase and cyclase activities of human and murine CD38; assay type: biochemical
T3 construct: host or cells: recombinant hCD38, cells and mouse tissues
T3 sequence (P28907 43-300): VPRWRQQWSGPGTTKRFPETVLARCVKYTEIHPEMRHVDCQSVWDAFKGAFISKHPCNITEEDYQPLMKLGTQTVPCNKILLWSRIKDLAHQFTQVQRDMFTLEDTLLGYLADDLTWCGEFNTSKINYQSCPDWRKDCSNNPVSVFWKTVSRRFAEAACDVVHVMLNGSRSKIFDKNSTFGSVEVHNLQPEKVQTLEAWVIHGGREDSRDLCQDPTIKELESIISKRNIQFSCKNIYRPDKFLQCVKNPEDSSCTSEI
Procedure: as §1, §2, §3, §4, §5

T2 sequence (P43490 whole entry): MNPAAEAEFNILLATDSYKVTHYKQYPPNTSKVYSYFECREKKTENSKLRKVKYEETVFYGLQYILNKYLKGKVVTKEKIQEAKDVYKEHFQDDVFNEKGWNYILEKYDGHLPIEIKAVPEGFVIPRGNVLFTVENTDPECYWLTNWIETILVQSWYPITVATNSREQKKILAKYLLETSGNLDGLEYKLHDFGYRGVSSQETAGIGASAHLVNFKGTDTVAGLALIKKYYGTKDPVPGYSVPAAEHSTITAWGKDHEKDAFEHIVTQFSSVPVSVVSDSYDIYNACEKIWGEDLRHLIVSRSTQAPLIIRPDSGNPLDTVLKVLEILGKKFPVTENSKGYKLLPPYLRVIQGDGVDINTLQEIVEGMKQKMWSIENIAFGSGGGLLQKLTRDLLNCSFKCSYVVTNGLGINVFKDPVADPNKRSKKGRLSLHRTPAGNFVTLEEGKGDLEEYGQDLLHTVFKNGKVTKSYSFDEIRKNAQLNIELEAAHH

In the case of O=C(O)c1nc(=O)[nH]c(=O)[nH]1 [OA, oxonic acid, reference compound], the “IC50 for CD38 (in words)” value (CD38 [1]) is reported as “millimolar range”.

In the case of O=c1[nH]c(=O)c2[nH]c(=O)[nH]c2[nH]1 [sUA, uric acid], the “Effect on NAMPT activity” value [2] is listed as “without affecting the activities”, the “Neutrophil response to IL-8” value (neutrophils) is listed as “inhibits neutrophils in response to IL-8” and the “Reversibility of the inhibitory effects on CD38” value (CD38 [3]; 30 min pre-incubation with 500 μM sUA, 100-fold dilution, hCD38, A549, THP-1) is listed as “reversible”. For the same compound, the “Mode of inhibition of CD38” value (CD38 [3]; different substrate concentrations, Figure 1C, D) was “non-competitive inhibitor”.
